Measured values reported in patent US20240415808A1, “Dosage Regimen for Fexuprazan Injection Composition” (Daewoong Pharmaceutical Co., Ltd., priority 2021, published 2024).
Values joined by “and” are separate entries in the source; they are usually repeats but may differ in a detail not shown here. Equal values may be shown once.

Key:
[1] = tested on: acidity (pH) in the gastrointestinal tract; experiment: single intravenous dose-escalation clinical trial, acidity (pH) in the gastrointestinal tract; type: in vivo, human; settings: healthy adults; for Fraction time pH ≥ 4 (%) / Fraction time pH ≥ 6 (%): 24 hours after medication
Description: (§1) In order to confirm the safety/PK/PD of the compound of the present invention during intravenous administration, the clinical trial was designed with random assignment, double-blind, placebo-controlled, single dose, and stepwise dose-escalation in healthy adults (Korean/Chinese) between the ages of 19 and 50.
(§2) A stabilizer (200 mg), a freeze-drying auxiliary agent (200 mg), and the previously prepared fexuprazan hydrochloride (40 mg based on fexuprazan weight) were dissolved in water for injection (4 mL), and an appropriate amount of acid was added thereto to adjust the pH to 4.0. The prepared solution was put into a vial, dried by a freeze-drying method, and prepared as a freeze-drying agent.
(§3) The freeze-dried composition prepared as above was used, but a total of 28 subjects of 4, 8, 8, and 8 subjects each were enrolled for four dose groups (10 mg, 20 mg, 40 mg, and 80 mg) based on fexuprazan weight, and each group was randomly assigned to test or control groups in the order that they passed the screening criteria at a ratio of 3:1. All test subjects completed safety, pharmacokinetic, and pharmacodynamic evaluations according to the planned clinical trial schedule.
(§4) The medication was performed in the morning, and the patient was discharged from the hospital on the third day of medication. Subsequently, a close-out visit was performed between the 8th and 11th day of medication.
(§5) Testing of the acidity (pH) in the gastrointestinal tract and gastric secretion promoting hormone gastrin were performed from 24 hours before medication to 24 hours after medication. Blood collection for pharmacokinetics and urine collection for pharmacokinetics were performed for 48 hours from the time of medication.

[2] = single intravenous dose-escalation clinical trial, pharmacokinetics; type: in vivo; settings: human, blood, healthy adults
Description: as §1, §2, §3, §4, §5
After a single intravenous administration of four dose groups for fexuprazan, the dose proportionality of fexuprazan to the Cmax, AUClast, and AUCinf parameters was evaluated between doses of 10 mg and 80 mg. The log-transformed parameters and 95% confidence interval regression lines of each dose after a single administration are shown in Table 7 and FIG. 3, respectively. […] That is, it can be confirmed that the pK parameter of intravenous administration is proportional to the dose.
Table 8 and FIG. 4 show the results of the Kruskal Wallis test for dose-normalized Cmax (Cmax/Dose), AUClast (AUClast/Dose), and AUCinf (AUCinf/Dose) between dose groups. […] That is, it can be seen that there is no significant difference between dose groups in the proportional relationship, and the appropriate dose for intravenous administration can be calculated indirectly through the appropriate dose for oral administration.

[3] = oral vs intravenous two-way crossover clinical trial, safety; type: in vivo, human; settings: healthy adults, single 40 mg oral and 40 mg intravenous
Excerpt: Therefore, in order to compare the safety/PK/PD of the compound of the present invention during single intravenous administration and during single oral administration and derive the bioavailability, the clinical trial was designed as a randomized, open-label, single-dose, two-period, two-way crossover trial in healthy adults. The selection/exclusion criteria were the same as in Experimental Example 4. A total of 8 subjects were enrolled, and four subjects each were randomly assigned to sequence group 1 or sequence group 2 in the order in which they passed the screening criteria. All test subjects completed safety, pharmacokinetic, and pharmacodynamic evaluations according to the planned clinical trial schedule.
as §5

[4] = single intravenous dose-escalation clinical trial, safety; type: in vivo, human; settings: healthy adults, single intravenous 10, 20, 40, 80 mg
Description: as §1, §3, §5

Compound: CNCc1cn(S(=O)(=O)c2cccc(F)c2)c(-c2ccc(F)cc2F)c1OC [Fexuprazan, 1-(5-(2,4-difluorophenyl)-1-((3-fluorophenyl)sulfonyl)-4-methoxy-1H-pyrrol-3-yl)-N-methylmethanamine]
- time during which the pH maintained above 6 for 12 hours ([1]; intravenous administration of 40 mg, 12 hours): ≥ 50%
- Mean pH ([1]; single intravenous 10 mg): 2.7 ± 0.1
- Median pH ([1]; single intravenous 10 mg): 2.1 ± 0.2
- Fraction time pH ≥ 4 (%) ([1]; single intravenous 10 mg): 20.4 ± 2.6%
- Fraction time pH ≥ 6 (%) ([1]; single intravenous 10 mg): 2.9 ± 2.0%
- Mean pH ([1]; single intravenous 20 mg): 3.9 ± 0.8
- Median pH ([1]; single intravenous 20 mg): 3.8 ± 1.3
- Fraction time pH ≥ 4 (%) ([1]; single intravenous 20 mg): 46.7% and 46.7 ± 19.0%
- Fraction time pH ≥ 6 (%) ([1]; single intravenous 20 mg): 16.7 ± 14.6%
- Mean pH ([1]; single intravenous 40 mg): 4.9 ± 0.3
- Median pH ([1]; single intravenous 40 mg): 5.4 ± 0.6
- Fraction time pH ≥ 4 (%) ([1]; single intravenous 40 mg): 71.0 ± 10.3%
- Fraction time pH ≥ 6 (%) ([1]; single intravenous 40 mg): 38.3 ± 9.0%
- Mean pH ([1]; single intravenous 80 mg): 5.9 ± 0.4
- Median pH ([1]; single intravenous 80 mg): 6.2 ± 0.3
- Fraction time pH ≥ 4 (%) ([1]; single intravenous 80 mg): 92.9 ± 4.8%
- Fraction time pH ≥ 6 (%) ([1]; single intravenous 80 mg): 59.65% and 59.7 ± 15.7%
- AUC(0-inf) ([2]; single intravenous 10 mg): 240 ± 31.3 ng·h/mL
- AUC(0-t) ([2]; single intravenous 10 mg): 235 ± 32.3 ng·h/mL
- clearance ([2]; single intravenous 10 mg): 702 mL/min
- half-life ([2]; single intravenous 10 mg): 9.04 ± 0.85 h
- Cmax ([2]; single intravenous 10 mg (N = 3)): 93.7 ± 13.9 ng/mL
- AUC(0-inf) ([2]; single intravenous 20 mg): 514 ± 113 ng·h/mL
- AUC(0-t) ([2]; single intravenous 20 mg): 502 ± 111 ng·h/mL
- clearance ([2]; single intravenous 20 mg): 677 mL/min
- half-life ([2]; single intravenous 20 mg): 8.61 ± 1.89 h
- Cmax ([2]; single intravenous 20 mg (N = 6)): 185 ± 32.3 ng/mL
- AUC(0-inf) ([2]; single intravenous 40 mg): 1100 ± 238 ng·h/mL
- AUC(0-t) ([2]; single intravenous 40 mg): 1070 ± 225 ng·h/mL
- clearance ([2]; single intravenous 40 mg): 630 mL/min
- half-life ([2]; single intravenous 40 mg): 8.84 ± 0.96 h
- Cmax ([2]; single intravenous 40 mg (N = 6)): 321 ± 75.7 ng/mL
- AUC(0-inf) ([2]; single intravenous 80 mg): 2380 ± 301 ng·h/mL
- AUC(0-t) ([2]; single intravenous 80 mg): 2290 ± 271 ng·h/mL
- clearance ([2]; single intravenous 80 mg): 567 mL/min
- half-life ([2]; single intravenous 80 mg): 10.2 ± 1.84 h
- Cmax ([2]; single intravenous 80 mg (N = 6)): 633 ± 165 ng/mL
- serious abnormalities or side effects [3]: no serious abnormalities or side effects were observed
- serious abnormalities or side effects [4]: no serious abnormalities or side effects were observed
